target: HSP90 (Homo sapiens, UniProt P07900); assay: HSP90 inhibition (HSP90 IC50); type: biochemical

Compound	IC50
Cc1c(O)cccc1C(=O)NC1CC2CCC(C1)N2c1ccc(C(=O)NCc2ccccc2)cn1 (stereo not drawn) [6-(3-endo-{[(3-hydroxy-2-methylphenyl)carbonyl]amino}-8-azabicyclo[3.2.1]oct-8-yl)-N-(phenylmethyl)pyridine-3-carboxamide]	1 to 2 µM
CC(=O)c1ccc(N2[C@@H]3CC[C@H]2C[C@@H](NC(=O)c2ccc(C(N)=O)c(NC4CCNC4)c2)C3)nc1 (stereo partly drawn) [N4-[8-(5-acetylpyridin-2-yl)-8-azabicyclo[3.2.1]oct.3-endo-yl]-2-(pyrrolidin-3-ylamino)benzene-1,4-dicarboxamide]	< 0.5 µM
Cc1cc(C(N)=O)c(NCC(C)(C)C)cc1C(=O)N[C@H]1C[C@H]2CC[C@@H](C1)N2c1ccc(C(=O)C2CC2)cn1 [N-{8-[5-(cyclopropylcarbonyl)pyridin-2-yl]-8-azabicyclo[3.2.1]oct-3-endo-yl)-5-[(2,2-dimethylpropyl)amino]-2-methylbenzene-1,4-dicarboxamide]	< 0.5 µM
CC(=O)c1ccc(N2[C@@H]3CC[C@H]2C[C@@H](NC(=O)c2ccc(C(N)=O)c(NC4CCNCC4)c2)C3)nc1 [N4-[8-(5-acetylpyridin-2-yl)-8-azabicyclo[3.2.1]oct-3-endo-yl]-2-(piperidin-4-ylamino)benzene-1,4-dicarboxamide]	< 0.5 µM
Cc1cc(C(=O)NC2CC3CCC(C2)N3c2ccc(C(=O)N[C@@H]3CCCN(C(C)C)C3)cn2)c(C)cc1C(N)=O (stereo partly drawn) [2,5-dimethyl-N-{8-[5-({[(3R)-1-(1-methylethyl)piperidin-3-yl]amino}carbonyl)pyridin-2-yl]-8-azabicyclo[3.2.1]oct-3-endo-yl}benzene-1,4-dicarboxamide]	< 0.5 µM
NC(=O)c1ccc(C(=O)N[C@H]2C[C@H]3CC[C@@H](C2)N3c2ccc(C(=O)CCc3ccccc3)cn2)cc1NCC1CC1 [2-[(cyclopropylmethyl)amino]-N4-{8-[5-(3-phenylpropanoyl)pyridin-2-yl]-8-azabicyclo[3.2.1]oct-3-endo-yl}benzene-1,4-dicarboxamide]	2 to 10 µM
CC(=O)c1ccc(N2[C@@H]3CC[C@H]2C[C@@H](NC(=O)c2ccc(C(N)=O)c(NCc4ccccc4)c2)C3)nc1 [N4-[8-(5-acetylpyridin-2-yl)-8-azabicyclo[3.2.1]oct-3-endo-yl]-2-[(phenylmethyl)amino]benzene-1,4-dicarboxamide]	0.5 to 0.999 µM
NC(=O)c1ccc(C(=O)N[C@H]2C[C@H]3CC[C@@H](C2)N3c2ccc(C(=O)C3CCCC3)cn2)cc1NCC1CC1 [N4-{8-[5-(cyclopentylcarbonyl)pyridin-2-yl]-8-azabicyclo[3.2.1]oct-3-endo-yl}-2-[(cyclopropylmethyl)amino]benzene-1,4-dicarboxamide]	2 to 10 µM
Cc1cc(C(N)=O)c(NC(C)CC(F)(F)F)cc1C(=O)N[C@H]1C[C@H]2CC[C@@H](C1)N2c1ccc(C(=O)C2CC2)cn1 (stereo partly drawn) [N-{8-[5-(cyclopropylcarbonyl)pyridin-2-yl]-8-azabicyclo[3.2.1]oct-3-endo-yl}-2-methyl-5-[(3,3,3-trifluoro-1-methylpropyl)amino]benzene-1,4-dicarboxamide]	< 0.5 µM
Cc1cc(C(N)=O)c(NC2CCCC2)cc1C(=O)N[C@H]1C[C@H]2CC[C@@H](C1)N2c1ccc(C(=O)C2CC2)cn1 [5-(cyclopentylamino)-N-{8-[5-(cyclopropylcarbonyl)pyridin-2-yl]-8-azabicyclo[3.2.1]oct-3-endo-yl}-2-methylbenzene-1,4-dicarboxamide]	< 0.5 µM
CC(Nc1c(C(N)=O)ccc(C(=O)N[C@H]2C[C@H]3CC[C@@H](C2)N3c2ccc(C(=O)C3CC3)cn2)c1Cl)C1CC1 (stereo partly drawn) [2-chloro-N-{8-[5-(cyclopropylcarbonyl)pyridin-2-yl]-8-azabicyclo[3.2.1]oct-3-endo-yl}-3-[(1-cyclopropylethyl)amino]benzene-1,4-dicarboxamide]	< 0.5 µM
NC(=O)c1ccc(N2C3CCC2CC(NC(=O)c2ccc(C(N)=O)c(N[C@H]4CC[C@H](O)CC4)c2)C3)nc1 (stereo partly drawn) [N4-{8-[5-(aminocarbonyl)pyridin-2-yl]-8-azabicyclo[3.2.1]oct-3-endo-yl}-2-[(4-hydroxycyclohexyl)amino]benzene-1,4-dicarboxamide]	< 0.5 µM
COc1cc(C(=O)NC2CC3CCC(C2)N3c2ccc(C(=O)N[C@@H](C)c3ccc(N4CCN(C)CC4)cc3)cn2)ccc1C(N)=O (stereo partly drawn) [2-(methyloxy)-N4-(8-{5-[({(1S)-1-[4-(4-methylpiperazin-1-yl)phenyl]ethyl}amino)carbonyl]pyridin-2-yl}-8-azabicyclo[3.2.1]oct-3-endo-yl)benzene-1,4-dicarboxamide]	< 0.5 µM
Cc1cc(C(N)=O)c(NC(C)C2CC2)cc1C(=O)N[C@H]1C[C@H]2CC[C@@H](C1)N2c1ccc(C(=O)C2CC2)cn1 (stereo partly drawn) [N-{8-[5-(cyclopropylcarbonyl)pyridin-2-yl]-8-azabicycbo[3.2.1]oct-3-endo-yl}-5-[(l-cyclopropylethyl)amino]-2-methylbenzene-1,4-dicarboxamide]	< 0.5 µM
CCC(Nc1cc(C(=O)N[C@H]2C[C@H]3CC[C@@H](C2)N3c2ccc(C(=O)C3CC3)cn2)c(C)cc1C(N)=O)C(C)C (stereo partly drawn) [N-{8-[5-(cyclopropylcarbonyl)pyridin-2-yl]-8-azabicyclo[3.2.1]oct-3-endo-yl}-5-[(1-ethyl-2-methylpropyl)amino]-2-methylbenzene-1,4-dicarboxamide]	< 0.5 µM
CCN1CCC(Nc2cc(C(=O)N[C@H]3C[C@H]4CC[C@@H](C3)N4c3ccc(C(C)=O)cn3)ccc2C(N)=O)CC1 [N4-[8-(5-acetylpyridin-2-yl)-8-azabicyclo[3.2.1]oct-3-endo-yl]-2-[(1-ethylpiperidin-4-yl)amino]benzene-1,4-dicarboxamide]	0.5 to 0.999 µM

The remaining lines, values ahead:

IC50	Compound
2 to 10 µM	N=C(N)c1ccc(C(=O)N[C@H]2C[C@H]3CC[C@@H](C2)N3c2ccc(C(=O)NCc3ccccc3)cn2)cc1 [6-{3-endo-[({4-[amino(imino)methyl]phenyl}carbonyl)amino]-8-azabicyclo[3.2.1]oct-8-yl}-N-(phenylmethyl)pyridine-3-carboxamide]
< 0.5 µM	CC[C@H](C)Nc1cc(C(=O)NC2CC3CCC(C2)N3c2ccc(C(=O)C3CC3)cn2)ccc1C(N)=O (stereo partly drawn) [N4-{8-[5-(cyclopropylcarbonyl)pyridin-2-yl]-8-azabicyclo[3.2.1]oct-3-endo-yl}-2-{[(1S)-1-methylpropyl]amino}benzene-1,4-dicarboxamide]
< 0.5 µM	CC[C@@H](C)Nc1cc(C(=O)NC2CC3CCC(C2)N3c2ccc(C(=O)C3CC3)cn2)c(OC)cc1C(N)=O (stereo partly drawn) [N-{8-[5-(cyclopropylcarbonyl)pyridin-2-yl]-8-azabicyclo[3.2.1]oct-3-endo-yl}-2-(methyloxy)-5-{[(1R)-1-methylpropyl]amino}benzene-1,4-dicarboxamide]
0.5 to 0.999 µM	CC[C@H](NC(=O)c1ccc(N2C3CCC2CC(NC(=O)c2cccc(OC)c2C)C3)nc1)c1ccccc1 (stereo partly drawn) [6-[3-endo-({[2-methyl-3-(methyloxy)phenyl]carbonyl}amino)-8-azabicyclo[3.2.1]oct-8-yl]-N-[(1S)-1-phenylpropyl]pyridine-3-carboxamide]
2 to 10 µM	COc1cccc(C(=O)N[C@H]2C[C@H]3CC[C@@H](C2)N3c2ccc(C(=O)NCc3ccccc3)cn2)c1I [6-[3-endo-({[2-iodo-3-(methyloxy)phenyl]carbonyl}amino)-8-azabicyclo[3.2.1]oct-8-yl]-N-(phenylmethyl)pyridine-3-carboxamide]
1 to 2 µM	COc1cccc(C(=O)NC2CC3CCC(C2)N3c2ccc(C(=O)N[C@H]3CCN(C)C3)cn2)c1C (stereo partly drawn) [6-[3-endo-({[2-methyl-3-(methyloxy)phenyl]carbonyl}amino)-8-azabicyclo[3.2.1]oct-8-yl]-N-[(3S)-1-methylpyrrolidin-3-yl]pyridine-3-carboxamide]
< 0.5 µM	COc1cccc(C(=O)N[C@H]2C[C@H]3CC[C@@H](C2)N3c2ccc(C(=O)NC3CCN(Cc4ccccc4)CC3)cn2)c1C [6-[3-endo-({[2-methyl-3-(methyloxy)phenyl]carbonyl}amino)-8-azabicyclo[3.2.1]oct-8-yl]-N-[1-(phenylmethyl)piperidin-4-yl]pyridine-3-carboxamide]
2 to 10 µM	COc1cccc(CNC(=O)c2ccc(N3[C@@H]4CC[C@H]3C[C@@H](NC(=O)c3cccc(OC)c3C)C4)nc2)c1 [6-[3-endo-({[2-methyl-3-(methyloxy)phenyl]carbonyl}amino)-8-azabicyclo[3.2.1]oct-8-yl]-N-{[3-(methyloxy)phenyl]methyl}pyridine-3-carboxamide]
< 0.5 µM	COc1cccc(C(=O)N[C@H]2C[C@H]3CC[C@@H](C2)N3c2ccc(C(=O)NCc3ccc(N4CCN(C)CC4)cc3)cn2)c1C
0.5 to 0.999 µM	CCN(CC)CCNC(=O)c1ccc(N2[C@@H]3CC[C@H]2C[C@@H](NC(=O)c2cccc(OC)c2C)C3)nc1 [N-[2-(diethylamino)ethyl]-6-[3-endo-({[2-methyl-3-(methyloxy)phenyl]carbonyl}amino)-8-azabicyclo[3.2.1]oct-8-yl]pyridine-3-carboxamide]
0.5 to 0.999 µM	COc1cccc(C(=O)N[C@H]2C[C@H]3CC[C@@H](C2)N3c2ccc(C(N)=O)cn2)c1C [6-[3-endo-({[2-methyl-3-(methyloxy)phenyl]carbonyl}amino)-8-azabicyclo[3.2.1]oct-8-yl]pyridine-3-carboxamide]
1 to 2 µM	COc1cccc(C(=O)N[C@H]2C[C@H]3CC[C@@H](C2)N3c2ccc(C(=O)Nc3ccc(C)cc3)cn2)c1C [6-[3-endo-({[2-methyl-3-(methyloxy)phenyl]carbonyl}amino)-8-azabicyclo[3.2.1]oct-8-yl]-N-(4-methylphenyl)pyridine-3-carboxamide]
< 0.5 µM	COc1cccc(C(=O)N[C@H]2C[C@H]3CC[C@@H](C2)N3c2ccc(C(=O)NCc3c(F)cc(F)cc3F)cn2)c1C [6-[3-endo-({[2-methyl-3-(methyloxy)phenyl]carbonyl}amino)-8-azabicyclo[3.2.1]oct-8-yl]-N-[(2,4,6-trifluorophenyl)methyl]pyridine-3-carboxamide]
0.5 to 0.999 µM	COc1cccc(C(=O)N[C@H]2C[C@H]3CC[C@@H](C2)N3c2ccc(C(=O)NCc3ccc(Cl)cc3)cn2)c1C [N-[(4-chlorophenyl)methyl]-6-[3-endo-({[2-methyl-3-(methyloxy)phenyl]carbonyl}amino)-8-azabicyclo[3.2.1]oct-8-yl]pyridine-3-carboxamide]

Reference: US8012956B2, “Tropane compounds” (Exelixis, Inc., priority 2007, dated 2011)
